Measured values from US11197862B2, “Methods of preventing toxicity of platinum drugs” (XOMICS BIOPHARMA, INC., priority 2015, dated 2021).
Where two headings read alike, the source gives them in different places.

Assays:
[1] = human, in vivo
[2] = cited from earlier work; for Plasma protein binding (%): published data; for Cmax: read-out: Plasma peak total concentration Cmax, published clinical pharmacokinetic data
[3] = clinical dose; cited from earlier work
OCT2 [4] = molecular target: T1, OCT2 (Homo sapiens, UniProt O15244); conditions: OCT2-mediated uptake; ASP+ 5 μM in HBSS; from Kido Y et al. J Med Chem 2011; cited from earlier work
T1 sequence (O15244 1-555): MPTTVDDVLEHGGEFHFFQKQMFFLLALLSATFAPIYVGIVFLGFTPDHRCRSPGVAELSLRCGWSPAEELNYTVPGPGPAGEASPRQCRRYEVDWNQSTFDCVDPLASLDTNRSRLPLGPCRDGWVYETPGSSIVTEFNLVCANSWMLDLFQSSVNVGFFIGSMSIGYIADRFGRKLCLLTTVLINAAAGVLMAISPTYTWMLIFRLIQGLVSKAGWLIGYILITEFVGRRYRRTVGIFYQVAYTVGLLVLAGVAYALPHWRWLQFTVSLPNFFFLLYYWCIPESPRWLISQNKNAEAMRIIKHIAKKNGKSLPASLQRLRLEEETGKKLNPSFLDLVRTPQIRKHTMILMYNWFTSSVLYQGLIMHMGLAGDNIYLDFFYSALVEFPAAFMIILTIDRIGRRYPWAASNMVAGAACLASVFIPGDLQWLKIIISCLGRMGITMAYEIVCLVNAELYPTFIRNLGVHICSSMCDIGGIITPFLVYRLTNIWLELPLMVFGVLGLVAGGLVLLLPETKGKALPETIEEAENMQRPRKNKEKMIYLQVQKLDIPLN

OCT2 [5] = molecular target: T1, OCT2; test: Inhibition of OCT2-mediated ASP+ uptake (Kido et al., Giacomini group)
OCT2 [6] = molecular target: T1, OCT2; test: Inhibition of OCT2-mediated metformin uptake in transfected MDCK-II cells; conditions: for inhibition at 5 min, 5 μM / inhibition at 5 min, 50 μM: human
OCT2 [7] = molecular target: T1, OCT2; test: Inhibition of OCT2-mediated oxaliplatin uptake in transfected MDCK-II cells (protein-free HBSS); conditions: for inhibition at 30 min, 5 μM / inhibition at 30 min, 50 μM / potency estimated from few doses at 30 min: human
Excerpt: Fully confluent MDCK cell monolayers were transfected with either cDNA plasmids encoding the human transporter to be tested or a GFP control. […] The cells were then washed with ice-cold PBS and lysed with 50:50 acetonitrile:H2O. Intracellular content of the substrate was quantified by LC/MS/MS or a MicroBeta radiometric plate reader.

OCT2 [8] = molecular target: T1, OCT2; test: in vitro
[9] = Published clinical pharmacokinetic data; conditions: from published Cmax and protein binding
OCT2 [10] = molecular target: T1, OCT2; test: Inhibition of OCT2-mediated oxaliplatin transport in 100% human serum or HBSS containing 4% BSA (IC50,app)
[11] = human, cell line expressing human OCT2 (cell line not given), probe ASP+ 5 μM
[12] = IC50 (μM) (substrate Oxaliplatin)
[13] = MDCK-II cells transfected with human OCT2, probe oxaliplatin 10 μM

Compound | Plasma protein binding (%) [2] | Cmax [2] | Inhibition % @ 20 μM (substrate ASP+) (OCT2 [4]) | potency estimated from few doses (OCT2 [5]; [11]) | IC50 (OCT2 [6]) | IC50 (OCT2 [7]) | inhibition at 30 min, 5 μM (OCT2 [7]) | inhibition at 30 min, 50 μM (OCT2 [7]) | potency estimated from few doses at 30 min (OCT2 [7]; [12]) | inhibition at 5 min, 5 μM (OCT2 [8]) | inhibition at 5 min, 50 μM (OCT2 [8]) | potency estimated from few doses at 30 min (OCT2 [7]) | Plasma peak unbound concentration Cmax,u [9] | also measured
N=C(N)c1ccc(OCCCCCOc2ccc(C(=N)N)cc2)cc1 [Pentamidine] | 69% | 730 nM | 102% | < 0.1 µM | 2.5 µM | 67 nM | 99% | 99% | 0.07 µM | 67% | 91% | – | – | Plasma peak unbound concentration Cmax,u [1]: 230 nM; patients with nephrotoxicity at a clinical dose [3]: ~25%
Cc1ccc(NC(=O)c2ccc(CN3CCN(C)CC3)cc2)cc1Nc1nccc(-c2cccnc2)n1 [Imatinib] | – | – | 103% | < 0.1 µM | – | – | 57% | 95% | 3.7 µM | – | – | – | – | fold less potent as inhibitor of OCT2-mediated metformin and oxaliplatin uptake than of ASP+ uptake (OCT2 [7]; comparison of Table 1 potencies): > 30 fold
NC1=NCC2c3ccccc3Cc3ccccc3N12 (stereo not shown) [Epinastine] | 64.2% | 120 nM | 97% | 0.58 µM | 3.9 µM | 190 nM | 96% | 100% | – | – | – | 0.19 µM | 40 nM | inhibition at 5 min, 5 μM (OCT2 [6]): 56%; inhibition at 5 min, 50 μM (OCT2 [6]): 92%
OCC(O)COc1ccc(Cl)cc1 (stereo not shown) [Chlorphenesin] | – | – | 96% | 0.86 µM | – | – | 14% | 30% | – | – | – | 118 µM | – | –
C[N+]1(C)[C@@H]2C[C@@H](OC(=O)C(O)(c3cccs3)c3cccs3)C[C@H]1[C@@H]1O[C@@H]12 [Tiotropium•Br] | 72% | 34 nM | – | – | 1.5 µM | 120 nM | 98% | 102% | – | – | – | 0.12 µM | 10 nM | inhibition at 5 min, 5 μM (OCT2 [6]): 77%; inhibition at 5 min, 50 μM (OCT2 [6]): 95%; IC50 (OCT2 [10]): 1.1 µM
CC(C)[N+](C)(CCOC(=O)C1c2ccccc2Oc2ccccc21)C(C)C [Propantheline•Br] | – | 134 nM | 107% | < 0.1 µM | 1.7 µM | < 100 nM | – | – | < 0.1 µM | 75% | 96% | – | – | inhibition at 30 min, 5 μM (OCT2 [7]; [13]): 103%; inhibition at 30 min, 50 μM (OCT2 [7]; [13]): 102%; IC50 (OCT2 [10]; IC50,app (μM), apparent inhibition constant in 100% human serum or HBSS containing 4% BSA, OCT2-mediated oxaliplatin uptake): 0.24 µM
C=C1C[C@@H]2[C@H](CC[C@]3(C)C(=O)CC[C@@H]23)[C@@]2(C)C=CC(=O)C=C12 [Exemestane] | 90% | 91 nM | 100% | < 0.1 µM | 2.6 µM | 190 nM | – | – | – | 66% | 94% | – | 10 nM | inhibition at 30 min, 5 μM (OCT2 [7]; [13]): 96%; inhibition at 30 min, 50 μM (OCT2 [7]; [13]): 102%; potency estimated from few doses at 30 min (OCT2 [7]; [13]): 0.19 µM
CC(C)[N+]1(C)[C@@H]2CC[C@H]1CC(OC(=O)C(CO)c1ccccc1)C2.[Br-] (stereo partly shown) [Ipratropium•Br] | – | – | 96% | – | – | – | – | – | – | – | – | – | – | potency estimated from few doses (OCT2 [5]; read-out: IC50 (μM) (substrate ASP+), estimated from the inhibition at the single concentration 20 μM): 0.81 µM; Inhibition % @ 5 μM (substrate Metformin) (OCT2 [6]; OCT2-mediated uptake, metformin 10 μM in HBSS, 5 min, inhibitor 5 μM): 94%; Inhibition % @ 50 μM (substrate Metformin) (OCT2 [6]; OCT2-mediated uptake, metformin 10 μM in HBSS, 5 min, inhibitor 50 μM): 97%; IC50 (OCT2 [6]; read-out: IC50 (μM) (substrate Metformin), OCT2-mediated uptake, metformin 10 μM in HBSS, estimated from 50 μM or regression of seven concentrations (±SEM)): 0.32 µM; Inhibition % @ 5 μM (substrate Oxaliplatin) (OCT2 [7]; OCT2-mediated uptake, oxaliplatin 10 μM in HBSS, 30 min, inhibitor 5 μM): 107%; Inhibition % @ 50 μM (substrate Oxaliplatin) (OCT2 [7]; OCT2-mediated uptake, oxaliplatin 10 μM in HBSS, 30 min, inhibitor 50 μM): 104%; potency estimated from few doses (OCT2 [7]; read-out: IC50 (μM) (substrate Oxaliplatin), OCT2-mediated uptake, oxaliplatin 10 μM in protein-free HBSS, estimated from single concentration or nonlinear regression): < 0.1 µM; IC50 (OCT2 [7]; read-out: IC50 or Ki, intrinsic inhibition constant in protein free HBSS, OCT2-mediated oxaliplatin uptake): < 100 nM
